Assay results taken from US8536332B2, “Modulating signal transduction pathways with substituted pyridol [2,3-b] pyrazines” (Aeterna Zentaris GmbH, priority 2007, dated 2013).

Row | SMILES | melting point
1 | COc1cc(Nc2cnc3ccc(NC(=S)NCCc4ccccc4)nc3n2)cc(OC)c1OC [Compound 699, 1-Phenethyl-3-[3-(3,4,5-trimethoxy-phenylamino)-pyrido[2,3-b]pyrazin-6-yl]-thiourea] | 197 to 200 °C
2 | CCNC(=O)Nc1cnc2ccc(Nc3ccc(O)cc3)nc2n1 [Compound 24, 1-Ethyl-3-[6-(4-hydroxy-phenylamino)-pyrido[2,3-b]pyrazin-3-yl]-urea] | 277 °C
3 | CCNC(=S)Nc1ccc2ncc(Nc3ccc(C)cc3C)nc2n1 [Compound 399, 1-[3-(2,4-Dimethyl-phenylamino)-pyrido[2,3-b]pyrazin-6-yl]-3-ethyl-thiourea] | 215 °C
4 | COc1cc(Nc2cnc3ccc(NC(=S)NC4CCCCCCC4)nc3n2)cc(OC)c1OC [Compound 691, 1-Cyclooctyl-3-[3-(3,4,5-trimethoxy-phenylamino)-pyrido[2,3-b]pyrazin-6-yl]-thiourea] | 250 °C
5 | COc1cc(-c2ccc3ncc(NC(=O)NC4CCCCCCC4)nc3n2)ccc1O [Compound 604, 1-Cyclooctyl-3-[6-(4-hydroxy-3-methoxy-phenyl)-pyrido[2,3-b]pyrazin-3-yl]-urea] | 232 to 234 °C
6 | CCNC(=O)Nc1ccc2ncc(-c3cccc(OCC)c3)nc2n1 [Compound 130, 1-[3-(3-Ethoxy-phenyl)-pyrido[2,3-b]pyrazin-6-yl]-3-ethyl-urea] | 220 to 223 °C
7 | CCNC(=O)Nc1ccc2ncc(-c3cccc4c3oc3ccccc34)nc2n1 [Compound 71, 1-(3-Dibenzofuran-4-yl-pyrido[2,3-b]pyrazin-6-yl)-3-ethyl-urea] | > 300 °C
8 | CCNC(=O)Nc1cnc2ccc(Nc3ccc(O)c(OC)c3)nc2n1 [Compound 21, 1-Ethyl-3-[6-(4-hydroxy-3-methoxy-phenylamino)-pyrido[2,3-b]pyrazin-3-yl]-urea] | 255 °C
9 | COc1cc(-c2ccc3ncc(NC(=O)NC(C)(C)C)nc3n2)ccc1O [Compound 28, 1-tert-Butyl-3-[6-(4-hydroxy-3-methoxy-phenyl)-pyrido[2,3-b]pyrazin-3-yl]-urea] | 219 to 222 °C
10 | CCNC(=O)Nc1cnc2ccc(Nc3ccc(C)c(OC)c3)nc2n1 [Compound 209, 1-Ethyl-3-[6-(3-methoxy-4-methyl-phenylamino)-pyrido[2,3-b]pyrazin-3-yl]-urea] | 255 °C
11 | CCNC(=S)Nc1cnc2ccc(Nc3cccc(CC(=O)O)c3)nc2n1 [Compound 195, {3-[3-(3-Ethyl-thioureido)-pyrido[2,3-b]pyrazin-6-ylamino]-phenyl}-acetic acid] | 248 °C
12 | CCNC(=O)Nc1ccc2ncc(-c3ccc(C)c([N+](=O)[O-])c3)nc2n1 [Compound 85, 1-Ethyl-3-[3-(4-methyl-3-nitro-phenyl)-pyrido[2,3-b]pyrazin-6-yl]-urea] | 253.3 to 256.2 °C
13 | Cc1cc(-c2ccc3ncc(NC(=O)NCCc4ccccc4)nc3n2)cc(C)c1O [Compound 588, 1-[6-(4-Hydroxy-3,5-dimethyl-phenyl)-pyrido[2,3-b]pyrazin-3-yl]-3-phenethyl-urea] | 267 to 269 °C
14 | COc1cc(-c2ccc3ncc(NC(=O)Nc4cccc5c4ccn5C)nc3n2)ccc1O [Compound 621, 1-[6-(4-Hydroxy-3-methoxy-phenyl)-pyrido[2,3-b]pyrazin-3-yl]-3-(1-methyl-1H-indol-4-yl)-urea] | 248 to 251 °C
15 | CCNC(=O)Nc1ccc2ncc(-c3ccc(OP(=O)([O-])[O-])c(OC)c3)nc2n1.[Na+].[Na+] | > 350 °C
16 | CCNC(=O)Nc1ccc2ncc(-c3cccc(NS(C)(=O)=O)c3)nc2n1 [Compound 120, N-{3-[6-(3-Ethyl-ureido)-pyrido[2,3-b]pyrazin-3-yl]-phenyl}-methanesulfonamide] | 224 to 228 °C
17 | CNC(=S)Nc1ccc2ncc(Nc3cc(OC)c(OC)c(OC)c3)nc2n1 [Compound 692, 1-Methyl-3-[3-(3,4,5-trimethoxy-phenylamino)-pyrido[2,3-b]pyrazin-6-yl]-thiourea] | 258 to 261 °C
18 | CCNC(=O)Nc1ccc2ncc(-c3ccccc3OCC(C)C)nc2n1 [Compound 62, 1-Ethyl-3-[3-(2-isobutoxy-phenyl)-pyrido[2,3-b]pyrazin-6-yl]-urea] | 179 to 181 °C
19 | CCNC(=S)Nc1cnc2ccc(Nc3cc(OC)c(OC)c(OC)c3)nc2n1 [Compound 200, 1-Ethyl-3-[6-(3,4,5-trimethoxy-phenylamino)-pyrido[2,3-b]pyrazin-3-yl]-thiourea] | 238 °C
20 | COc1cc(-c2ccc3ncc(NC(=O)Nc4ccc5sccc5c4)nc3n2)ccc1O [Compound 609] | 257 to 259 °C
21 | CC(=O)NCC(=O)Nc1ccc2ncc(Nc3ccc(C)cc3)nc2n1 [Compound 66, 2-Acetylamino-N-(3-p-tolylamino-pyrido [2,3-b]pyrazin-6-yl)-acetamide] | 276 to 279 °C
22 | CCNC(=O)Nc1ccc2ncc(-c3cc(Cl)ccc3Cl)nc2n1 [Compound 92, 1-[3-(2,5-Dichloro-phenyl)-pyrido[2,3-b]pyrazin-6-yl]-3-ethyl-urea] | 264 to 269 °C

Row | SMILES | melting point
23 | CCNC(=O)Nc1ccc2ncc(-c3cccc(OC)c3OC)nc2n1 [Compound 68, 1-[3-(2,3-Dimethoxy-phenyl)-pyrido[2,3-b]pyrazin-6-yl]-3-ethyl-urea] | 182 to 185 °C
24 | CCN(CC)C(=O)Nc1cnc2ccc(-c3ccc(O)c(OC)c3)nc2n1 [Compound 632, 1,1-Diethyl-3-[6-(4-hydroxy-3-methoxy-phenyl)-pyrido[2,3-b]pyrazin-3-yl]-urea] | 214 to 216 °C
25 | CCNC(=O)Nc1cnc2ccc(-c3ccc(C(=O)O)c(O)c3)nc2n1 [Compound 644] | 225 °C
26 | CCCOc1c(C)cc(-c2ccc3ncc(NC(=O)NCC)nc3n2)cc1C [Compound 598, 1-[6-(3,5-Dimethyl-4-propoxy-phenyl)-pyrido[2,3-b]pyrazin-3-yl]-3-ethyl-urea] | 232 °C
27 | CCNC(=O)Nc1ccc2ncc(-c3cccc(C(=O)OCC)c3)nc2n1 [Compound 119, 3-[6-(3-Ethyl-ureido)-pyrido[2,3-b]pyrazin-3-yl]-benzoic acid ethyl ester] | 222 to 223 °C
28 | CCNC(=O)Nc1cnc2ccc(Cl)nc2n1 [Example 1, 1-(6-Chloro-pyrido[2,3-b]pyrazin-3-yl)-3-ethyl-urea] | 240 °C
29 | CCNC(=O)Nc1ccc2ncc(Nc3cc(C(C)(C)C)ccc3O)nc2n1 [Compound 336, 1-[3-(5-tert-Butyl-2-hydroxy-phenylamino)-pyrido[2,3-b]pyrazin-6-yl]-3-ethyl-urea] | 255 °C
30 | CCNC(=O)Nc1cnc2ccc(Nc3cc(Cl)c(O)c(Cl)c3)nc2n1 [Compound 15, 1-[6-(3,5-Dichloro-4-hydroxy-phenylamino)-pyrido[2,3-b]pyrazin-3-yl]-3-ethyl-urea] | 272 °C
31 | COc1cc(-c2ccc3ncc(NC(=O)Nc4ccc(F)cc4)nc3n2)ccc1O [Compound 600, 1-(4-Fluoro-phenyl)-3-[6-(4-hydroxy-3-methoxy-phenyl)-pyrido[2,3-b]pyrazin-3-yl]-urea] | 244 to 246 °C
32 | COc1cc(-c2ccc3ncc(NC(=O)Nc4ccccc4[N+](=O)[O-])nc3n2)ccc1O [Compound 617, 1-[6-(4-Hydroxy-3-methoxy-phenyl)-pyrido[2,3-b]pyrazin-3-yl]-3-(2-nitro-phenyl)-urea] | 220 to 222 °C
33 | CCNC(=O)Nc1ccc2ncc(Nc3ccc(N(C)C)cc3)nc2n1 [Compound 169, 1-[3-(4-Dimethylamino-phenylamino)-pyrido[2,3-b]pyrazin-6-yl]-3-ethyl-urea] | 228 °C
34 | CCNC(=O)Nc1ccc2ncc(-c3cccc(Cl)c3Cl)nc2n1 [Compound 108, 1-[3-(2,3-Dichloro-phenyl)-pyrido[2,3-b]pyrazin-6-yl]-3-ethyl-urea] | > 350 °C
35 | CCNC(=O)Nc1cnc2ccc(-c3cc(C)cc(Br)c3OC)nc2n1 [Compound 639, 1-[6-(3-Bromo-2-methoxy-5-methyl-phenyl)-pyrido[2,3-b]pyrazin-3-yl]-3-ethyl-urea] | 250 to 252 °C
36 | CCNC(=O)Nc1ccc2ncc(-c3cnc4[nH]ccc4c3)nc2n1 [Compound 61, 1-Ethyl-3-[3-(1H-pyrrolo[2,3-b]pyridin-5-yl)-pyrido[2,3-b]pyrazin-6-yl]-urea] | 270 to 274 °C
37 | CCNC(=S)Nc1ccc2ncc(-c3cccc(OC(C)C)c3)nc2n1 [Compound 127, 1-Ethyl-3-[3-(3-isopropoxy-phenyl)-pyrido[2,3-b]pyrazin-6-yl]-thiourea] | 227 °C
38 | CCNC(=S)Nc1cnc2ccc(Nc3ccc(C)cc3)nc2n1 [Compound 25, 1-Ethyl-3-(6-p-tolylamino-pyrido[2,3-b]pyrazin-3-yl)-thiourea] | 195 °C
39 | CCNC(=O)Nc1ccc2ncc(Nc3cccc(CO)c3)nc2n1 [Compound 154, 1-Ethyl-3-[3-(3-hydroxymethyl-phenylamino)-pyrido[2,3-b]pyrazin-6-yl]-urea] | 238 °C
40 | CCNC(=O)Nc1ccc2ncc(-c3ccc(-c4ccccc4)cc3)nc2n1 [Compound 123, 1-(3-Biphenyl-4-yl-pyrido[2,3-b]pyrazin-6-yl)-3-ethyl-urea] | 280 °C
41 | CCNC(=S)Nc1cnc2ccc(Nc3ccccc3O)nc2n1 [Compound 197, 1-Ethyl-3-[6-(2-hydroxy-phenylamino)-pyrido[2,3-b]pyrazin-3-yl]-thiourea] | 211 °C
42 | CCNC(=O)Nc1ccc2ncc(Nc3cc(C)c(O)cc3C)nc2n1 [Compound 446, 1-Ethyl-3-[3-(4-hydroxy-2,5-dimethyl-phenylamino)-pyrido[2,3-b]pyrazin-6-yl]-urea] | 222 °C
43 | COCCNC(=S)Nc1ccc2ncc(Nc3cc(OC)c(OC)c(OC)c3)nc2n1 [Compound 705, 1-(2-Methoxy-ethyl)-3-[3-(3,4,5-trimethoxy-phenylamino)-pyrido[2,3-b]pyrazin-6-yl]-thiourea] | 243 to 245 °C
44 | COc1cc(-c2ccc3ncc(NC(=O)Nc4ccc(N5C(=O)C=CC5=O)cc4)nc3n2)ccc1O [Compound 622, 1-[4-(2,5-Dioxo-2,5-dihydro-pyrrol-1-yl)-phenyl]-3-[6-(4-hydroxy-3-methoxy-phenyl)-pyrido[2,3-b]pyrazin-3-yl]-urea] | 290 to 293 °C
